Patent US10292991B2, “Small molecule therapeutic compounds that reduce the incidence of intracerebral hemorrhage and brain microhemorrhages” (St. Michaels Hospital, priority 2016, dated 2019)

Key:
[1] = test system: LPS-induced brain microbleeds in mice; test: LPS-induced microbleeding mouse model; type: in vivo, C57BL/6 mice
Description: An LPS-mediated micro bleeding model was created similar to that described in Lui et al (Liu S, Grigoryan M M, Vasilevko V et al. Comparative analysis of H&E and Prussian blue staining in a mouse model of cerebral microbleeds. J Histochem Cytochem 2014; 62:767-773). 9-10 week old C57BL/6 mice of both sexes were purchased from Charles River, and randomly assigned to control or treatment groups in equal numbers. LPS from Salmonella enterica (Sigma Aldrich, St Louis, Mo.) was reconstituted with PBS to a final concentration of 5 mg/ml. Both control (n=16) and drug treatment (n=16) groups received injections of 5 mg/kg LPS at times 0 and 24 hrs. The drug treatment group, further divided into high dose (n=4) and low dose (n=12), received intraperitoneal injections of artemether (ARM) (25 mg/kg for Low dose and 100 mg/kg for High dose) at time points −72, −48, −24, 0 and 24 hrs of LPS treatment. All mice were sacrificed at 48 hrs after the first LPS injection.
LPS-induced microbleeding model: All mice in the LPS study were deeply anesthetized with ketamine and xylazine and perfused through the left cardiac ventricle with NaCl, 0.9%, followed by 4% paraformaldehyde (PFA) in 1×PBS buffer and 2 mM Gadoteridol contrast agent for 24 hours. Each brain was transferred into a 1×PBS+0.02% sodium azide and 2 mM Gadoteridol contrast agent. Brains were kept in this immersion solution for 14 days before imaging to ensure proper contrast diffusion in the brain for magnetic resonance imaging (MRI) scan. […]
For the integrin ICH model, brains were taken out of the skull, cut at the mid-coronal position and assessed in a binary manner for whether or not there was any evidence of ICH. […]
Brains were scanned using 7T Burker MRI with 16-channel solenoid coils. […] Following the reconstruction of images and applying image distortion correction algorithms, all brains were processed and analyzed for total volume of brain and total volume of hemorrhage. Quantification was done using percentage of bleeding (normalized to each brain size). […] Lastly, quantification was done in a blinded fashion. […]

zebrafish larvae = test: Toxicity assay in zebrafish larvae (heart beat, blood flow, cardiac edema); type: in vivo, zebrafish (Danio rerio)
Description: The embryos were collected and distributed into a 96-well plate in 0.5% DMSO, similar to efficacy assays. […] Heart beat and blood flow were ranked from 3 (normal heart beat or blood flow) to 0 (no heart beat or blood flow). Cardiac edema was ranked from 0 (normal heart without edema) to −3 (severe cardiac edema). […] The ratio of TC50/EC50 was calculated in each case.
Heart beat and blood flow were ranked from 3 (normal heart beat or blood flow) to 0 (no heart beat or blood flow). Cardiac edema was ranked from 0 (normal heart without edema) to −3 (severe cardiac edema). […] Data is expressed as mean±SEM from 3 experiments.

[2] = test system: Cdh5 - exon2 morpholino-induced hemorrhage in zebrafish; test: Cdh5 (VE-cadherin) morpholino-induced hemorrhage in zebrafish, rescue by drugs; type: in vivo, zebrafish (Danio rerio); conditions: result in words, no EC50
Description: Danieau buffer (58 mM NaCl, 0.7 mM KCl, 0.4 mM MgSO4, 0.6 mM Ca(NO3)2, 5.0 mM HEPES, pH 7.6) was used to dilute the MO solutions to 0.2 mM final concentration. Individual wells were placed on a 1.0% agarose plate, in which the embryos were positioned. Afterwards, the MO solution was injected through the cell yolk into embryos of 1 to 4 cell-stage. The injected quantities varied from 0.5 to 15 ng.
Panels A & B: Stable EC junctions are maintained by a Cdc42-dependent and VE-cadherin-mediated cell-cell adhesion. VE cadherins are found on the surfaces of EC cell-cell junctions. VE-cadherins are associated with β- and α-catenins at their cytoplasmic domains, which connect them to the actin-based cytoskeleton (blue circles). Cdc42 belongs to the Rho-family of small guanosine triphosphatases (GTPases), which are the main regulators of VE-cadherin-based cell-cell adhesion. The functions of hmgcrb, βPix, and pak2a in regulating junctional stability in zebrafish are shown. HNGCR mediated GGPP biosynthesis regulates Cdc42 prenylation. βPix is a GEF that increases CDC42 affinity for GTP. Pak2 is an effector of Cdc42, which regulates actin filament organization.
Suppression of VE-cadherin induces hemorrhage.

[3] = drug from Sequoia Research (UK)
[4] = drug from Sigma, 3 dpf larvae, drug added 24 hpf

## CO[C@H]1O[C@@H]2O[C@@]3(C)CC[C@H]4[C@H](C)CC[C@@H]([C@H]1C)[C@@]24OO3 [Artemether]
[1]; LPS+ARM vs LPS, n=8, P<0.01
  Total number of microbleeds inside the brain (H&E slices): significantly reduced
[1]; LPS+ARM vs LPS, n=8, P<0.05
  Total surface microbleeds (stereomicroscope count): robust reduction
[1]; vs model control group, n=8, P<0.05
  Reduction of bleeding (MRI, total microbleed volume normalized to brain volume): about ⅔
Zebrafish larvae; [3]
  TC50 (Blood flow): 746.3 nM
  TC50/EC50 ratio (Blood flow): (9.2)
  TC50/EC50 ratio (Edema): (6.5e+010)
  TC50/EC50 ratio (Heart beat): (1.3e+011)
Zebrafish larvae; drug from Sigma
  TC50/EC50 ratio (Blood flow): (39.5)
  TC50/EC50 ratio (Edema): (87.1)
  TC50/EC50 ratio (Heart beat): (94.3)
Zebrafish larvae; [4]
  TC50 (Blood flow): 975.3 nM
  TC50 (Edema): 19564 nM
  TC50 (Heart beat): 2328 nM
Zebrafish larvae; result in words
  Safety in zebrafish embryos (EC50 compared with TC50): EC50 is much lower than TC50
[2]; listed as ARM
  Rescue of hemorrhage induced by Cdh5 - exon2 morpholino: rescue was observed
[2]; listed as ARM (Sigma)
  Rescue of hemorrhage induced by Cdh5 - exon2 morpholino: Rescue effect
